Experimental data reported in patent US8283353B2, “Fused ring compound and use thereof” (Takeda Pharmaceutical Company Limited, priority 2009, dated 2012).

How the values were obtained:
human PPARγ = target: T1, human PPARγ (Homo sapiens, UniProt P37231); assay: PPARγ agonistic activity: luciferase reporter assay in PPARγ:RXRα:4ERPP/CHO-K1 cells; format: cell-based; conditions: CHO-K1, test compound 10^−6 M; luciferase activity of control compound X (1 μM) = 100%, non-administration group = 0%
T1 construct: expressed in transfected cells
T1 sequence (P37231 1-477 isoform P37231-2): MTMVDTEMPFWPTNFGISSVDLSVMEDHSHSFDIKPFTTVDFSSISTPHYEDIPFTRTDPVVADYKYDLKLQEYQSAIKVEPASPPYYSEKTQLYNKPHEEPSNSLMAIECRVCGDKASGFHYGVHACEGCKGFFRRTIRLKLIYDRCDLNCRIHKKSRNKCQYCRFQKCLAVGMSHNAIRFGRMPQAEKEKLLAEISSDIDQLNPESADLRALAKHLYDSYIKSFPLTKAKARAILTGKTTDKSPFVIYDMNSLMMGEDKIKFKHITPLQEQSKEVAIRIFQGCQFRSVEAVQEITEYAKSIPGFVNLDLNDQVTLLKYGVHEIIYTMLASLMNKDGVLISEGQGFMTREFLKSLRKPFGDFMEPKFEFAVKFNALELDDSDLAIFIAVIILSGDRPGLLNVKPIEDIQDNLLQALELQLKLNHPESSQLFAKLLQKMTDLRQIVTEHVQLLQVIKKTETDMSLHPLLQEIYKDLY
T1 sequence (P19793 1-462 partner): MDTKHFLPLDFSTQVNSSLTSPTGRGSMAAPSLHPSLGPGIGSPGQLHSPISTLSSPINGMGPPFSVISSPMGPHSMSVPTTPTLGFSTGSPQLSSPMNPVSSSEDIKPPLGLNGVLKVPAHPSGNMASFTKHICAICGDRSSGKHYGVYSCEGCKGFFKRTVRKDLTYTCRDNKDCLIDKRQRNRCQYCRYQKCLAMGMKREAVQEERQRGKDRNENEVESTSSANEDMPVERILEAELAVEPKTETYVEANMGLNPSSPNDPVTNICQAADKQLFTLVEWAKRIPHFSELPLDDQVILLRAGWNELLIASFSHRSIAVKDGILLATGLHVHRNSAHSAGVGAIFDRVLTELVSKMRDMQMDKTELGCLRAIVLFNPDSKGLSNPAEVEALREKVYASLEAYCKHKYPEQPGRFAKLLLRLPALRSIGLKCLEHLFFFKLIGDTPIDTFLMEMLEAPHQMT
Summary of the method: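 Activity is expressed relative to untreated cells (0%) and 1 μM reference compound X (100%), from luciferase luminescence. Reporter line: PPARγ:RXRα:4ERPP/CHO-K1, exposed to compound for one day at 37 °C in F12 medium containing 0.1% fatty-acid-free BSA.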

human AT1 receptor = target: T2, human AT1 receptor (Homo sapiens, UniProt P30556); assay: AT1 receptor antagonistic activity: [125I]-angiotensin II binding assay on human AT1 receptor-expressing CHO-K1 cellular membrane fraction; conditions: 22.5 pM [125I]-angiotensin II, 1 hr room temperature
T2 construct: expressed in transfected cells; membrane fraction
T2 sequence (P30556 1-359): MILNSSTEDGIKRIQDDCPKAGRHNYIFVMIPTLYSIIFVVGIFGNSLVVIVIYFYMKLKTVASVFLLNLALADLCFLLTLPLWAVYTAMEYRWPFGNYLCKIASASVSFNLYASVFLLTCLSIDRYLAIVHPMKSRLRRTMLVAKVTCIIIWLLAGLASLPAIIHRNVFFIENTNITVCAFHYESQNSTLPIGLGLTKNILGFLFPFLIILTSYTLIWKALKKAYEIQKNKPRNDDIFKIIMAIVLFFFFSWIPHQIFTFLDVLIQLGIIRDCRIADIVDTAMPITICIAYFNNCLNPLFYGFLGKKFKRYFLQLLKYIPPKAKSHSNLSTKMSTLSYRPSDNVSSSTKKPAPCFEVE
Summary of the method: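 Competition binding used radiolabelled angiotensin II on stably transfected CHO-K1 membrane fractions in Tris pH 7.4/MgCl2 buffer, optionally containing 0.3 mg/mL fatty acid-free BSA, 1 hr at room temperature. Filtration onto GF/C separated bound tracer, and nonspecific binding was measured with candesartan.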

activation at 1 µM (human PPARγ) [%]	IC50 (human AT1 receptor) [nM]	Compound
26	2.5	CCCc1c(Cc2ccc(-c3ccccc3-c3noc(=O)[nH]3)cc2F)c(=O)n([C@H]2CC[C@H](OC3(C(C)(C)O)CC3)CC2)c2ncnn12 [Example 362, 6-{[3-fluoro-2′-(5-oxo-4,5-dihydro-1,2,4-oxadiazol-3-yl)biphenyl-4-yl]methyl}-4-(trans-4-{[1-(1-hydroxy-1-methylethyl)cyclopropyl]oxy}cyclohexyl)-7-propyl[1,2,4]triazolo[1,5-a]pyrimidin-5(4H)-one]
17	1.3	CCCc1c(Cc2ccc(-c3ccccc3-c3noc(=O)[nH]3)cc2F)c(=O)n(C2CCOC(C)(C)C2)c2nc(C)nn12 (stereo not shown) [Example 136, 4-(2,2-dimethyltetrahydro-2H-pyran-4-yl)-6-{[3-fluoro-2′-(5-oxo-4,5-dihydro-1,2,4-oxadiazol-3-yl)biphenyl-4-yl]methyl}-2-methyl-7-propyl[1,2,4]triazolo[1,5-a]pyrimidin-5(4H)-one]
16	2	CCCc1c(Cc2ccc(-c3ccccc3-c3noc(=O)[nH]3)cc2)c(=O)n([C@H]2CC[C@H](OC(C)C(C)(C)O)CC2)c2ncnn12 (single isomer, unassigned) [Example 319, 4-[trans-4-(2-hydroxy-1,2-dimethylpropoxy)cyclohexyl]-6-{[2′-(5-oxo-4,5-dihydro-1,2,4-oxadiazol-3-yl)biphenyl-4-yl]methyl}-7-propyl[1,2,4]triazolo[1,5-a]pyrimidin-5(4H)-one (retention time: long)]
17	1.7	CCCc1c(Cc2ccc(-c3ccccc3-c3noc(=O)[nH]3)cc2)c(=O)n(C(C)CC)c2nc(C)nn12 (stereo not shown) [Example 68, 2-methyl-4-(1-methylpropyl)-6-{[2′-(5-oxo-4,5-dihydro-1,2,4-oxadiazol-3-yl)biphenyl-4-yl]methyl}-7-propyl[1,2,4]triazolo[1,5-a]pyrimidin-5(4H)-one]
25	2.1	CCCc1c(Cc2ccc(-c3ccccc3-c3noc(=O)[nH]3)cc2)c(=O)n(C2C=CCCC2)c2nc(C)nn12 (stereo not shown) [Example 74, 4-(cyclohex-2-en-1-yl)-2-methyl-6-{[2′-(5-oxo-4,5-dihydro-1,2,4-oxadiazol-3-yl)biphenyl-4-yl]methyl}-7-propyl[1,2,4]triazolo[1,5-a]pyrimidin-5(4H)-one]
25	2.2	CCCc1c(Cc2ccc(-c3ccccc3-c3noc(=O)[nH]3)cc2F)c(=O)n([C@H]2C[C@H](OCC(C)(C)O)C2)c2ncnn12 [Example 367, 6-{[3-fluoro-2′-(5-oxo-4,5-dihydro-1,2,4-oxadiazol-3-yl)biphenyl-4-yl]methyl}-4-[trans-3-(2-hydroxy-2-methylpropoxy)cyclobutyl]-7-propyl[1,2,4]triazolo[1,5-a]pyrimidin-5(4H)-one]
35	2.1	CCCCc1c(Cc2ccc(-c3ccccc3-c3noc(=O)[nH]3)cc2)c(=O)n([C@H]2CC[C@H](OCC(C)(C)O)CC2)c2ncnn12 [Example 232, 7-butyl-4-[trans-4-(2-hydroxy-2-methylpropoxy)cyclohexyl]-6-{[2′-(5-oxo-4,5-dihydro-1,2,4-oxadiazol-3-yl)biphenyl-4-yl]methyl}[1,2,4]triazolo[1,5-a]pyrimidin-5(4H)-one]
43	0.8	CCCc1c(Cc2ccc(-c3ccccc3-c3noc(=O)[nH]3)cc2F)c(=O)n([C@H]2CC[C@H](O)CC2)c2ncnn12 [Example 167, 6-{[3-fluoro-2′-(5-oxo-4,5-dihydro-1,2,4-oxadiazol-3-yl)biphenyl-4-yl]methyl}-4-(trans-4-hydroxycyclohexyl)-7-propyl[1,2,4]triazolo[1,5-a]pyrimidin-5(4H)-one]
40	1.6	CCCc1c(Cc2ccc(-c3ccccc3-c3noc(=O)[nH]3)cc2)c(=O)n([C@H]2CC[C@@H](OCCO)CC2)c2ncnn12 [Example 163, 4-[cis-4-(2-hydroxyethoxy)cyclohexyl]-6-{[2′-(5-oxo-4,5-dihydro-1,2,4-oxadiazol-3-yl)biphenyl-4-yl]methyl}-7-propyl[1,2,4]triazolo[1,5-a]pyrimidin-5(4H)-one]
19	1.9	CCCc1c(Cc2ccc(-c3ccccc3-c3noc(=O)[nH]3)cc2)c(=O)n([C@H]2CC[C@H](OC(CC)C(C)(C)O)CC2)c2ncnn12 (stereo partly drawn) [Example 348, 4-[trans-4-(1-ethyl-2-hydroxy-2-methylpropoxy)cyclohexyl]-6-{[2′-(5-oxo-4,5-dihydro-1,2,4-oxadiazol-3-yl)biphenyl-4-yl]methyl}-7-propyl[1,2,4]triazolo[1,5-a]pyrimidin-5(4H)-one]
20	1.5	CCCc1c(Cc2ccc(-c3ccccc3-c3noc(=O)[nH]3)cc2F)c(=O)n(C2CCSCC2)c2nc(C)nn12 [Example 113, 6-{[3-fluoro-2′-(5-oxo-4,5-dihydro-1,2,4-oxadiazol-3-yl)biphenyl-4-yl]methyl}-2-methyl-7-propyl-4-(tetrahydro-2H-thiopyran-4-yl)[1,2,4]triazolo[1,5-a]pyrimidin-5(4H)-one]
16	3	CCCc1c(Cc2ccc(-c3ccccc3-c3noc(=O)[nH]3)cc2)c(=O)n(CCC)c2ncnn12 [Example 29, 6-{[2′-(5-oxo-4,5-dihydro-1,2,4-oxadiazol-3-yl)biphenyl-4-yl]methyl}-4,7-dipropyl[1,2,4]triazolo[1,5-a]pyrimidin-5(4H)-one]
18	1.8	CCCc1c(Cc2ccc(-c3ccccc3-c3noc(=O)[nH]3)cc2)c(=O)n(CC(=O)C(C)(C)C)c2ncnn12 [Example 10, 4-(3,3-dimethyl-2-oxobutyl)-6-{[2′-(5-oxo-4,5-dihydro-1,2,4-oxadiazol-3-yl)biphenyl-4-yl]methyl}-7-propyl[1,2,4]triazolo[1,5-a]pyrimidin-5(4H)-one]
35	3.1	CCCc1c(Cc2ccc(-c3ccccc3-c3noc(=O)[nH]3)cc2)c(=O)n([C@H]2CC[C@](C)(CO)CC2)c2ncnn12 [Example 189, 4-[trans-4-(hydroxymethyl)-4-methylcyclohexyl]-6-{[2′-(5-oxo-4,5-dihydro-1,2,4-oxadiazol-3-yl)biphenyl-4-yl]methyl}-7-propyl[1,2,4]triazolo[1,5-a]pyrimidin-5(4H)-one]
23	2.5	CCCc1c(Cc2ccc(-c3ccccc3-c3noc(=O)[nH]3)cc2)c(=O)n([C@H]2CC[C@H](OCC3(C#N)CCC3)CC2)c2ncnn12 [Example 227, 1-[({trans-4-[5-oxo-6-{[2′-(5-oxo-4,5-dihydro-1,2,4-oxadiazol-3-yl)biphenyl-4-yl]methyl}-7-propyl[1,2,4]triazolo[1,5-a]pyrimidin-4(5H)-yl]cyclohexyl}oxy)methyl]cyclobutanecarbonitrile]
19	1.2	CCCc1c(Cc2ccc(-c3ccccc3-c3noc(=O)[nH]3)cc2)c(=O)n(C2CCC(C(C)(C)O)CC2)c2ncnn12 (stereo not shown) [Example 376, 4-[4-(1-hydroxy-1-methylethyl)cyclohexyl]-6-{[2′-(5-oxo-4,5-dihydro-1,2,4-oxadiazol-3-yl)biphenyl-4-yl]methyl}-7-propyl[1,2,4]triazolo[1,5-a]pyrimidin-5(4H)-one]

Compound	activation at 1 µM (human PPARγ) [%]	IC50 (human AT1 receptor) [nM]
CCCc1c(Cc2ccc(-c3ccccc3-c3noc(=O)[nH]3)cc2)c(=O)n([C@H]2CC[C@H](OCC(O)(CC)CC)CC2)c2nc(C)nn12 [Example 197, 4-[trans-4-(2-ethyl-2-hydroxybutoxy)cyclohexyl]-2-methyl-6-{[2′-(5-oxo-4,5-dihydro-1,2,4-oxadiazol-3-yl)biphenyl-4-yl]methyl}-7-propyl[1,2,4]triazolo[1,5-a]pyrimidin-5(4H)-one]	17	2
